Results on 24 molecules are retold here after patent publication US20130267494A1, “1,4-OXAZEPANE DERIVATIVES” (priority 2010, published 2013).

Counter-ions that a name gives are not always drawn.

What all share (format): cell-based
In assay [1] the target is T1, human serotonin transporter (Homo sapiens, UniProt P31645).
T1 construct: expressed in transfected cells
Nature of the assay: Inhibitory action on human serotonin transporter ([3H]-5-hydroxytryptamine uptake in CHO cells). The following applies: compound 1 μM, relative to inhibitory activity of 10 μM Paroxetine as 100%; for inhibition at 1 µM: CHO, read-out: inhibitory rate (%). An outline of the steps:
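CHO-K1 cells stably expressing human SERT, plated overnight, took up [3H]-5-HT (diluted to 200 nM before a 1:10 addition) for 20 min in HEPES-buffered saline with glucose and 0.5% BSA; radioactivity counted by scintillation. Compounds at 10 μM or 1 μM, activity expressed relative to 10 μM paroxetine set as 100%.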

The target in assay [2] is T2, human norepinephrine transporter (Homo sapiens, UniProt P23975).
T2 construct: expressed in transfected cells
T2 sequence (P23975 whole entry): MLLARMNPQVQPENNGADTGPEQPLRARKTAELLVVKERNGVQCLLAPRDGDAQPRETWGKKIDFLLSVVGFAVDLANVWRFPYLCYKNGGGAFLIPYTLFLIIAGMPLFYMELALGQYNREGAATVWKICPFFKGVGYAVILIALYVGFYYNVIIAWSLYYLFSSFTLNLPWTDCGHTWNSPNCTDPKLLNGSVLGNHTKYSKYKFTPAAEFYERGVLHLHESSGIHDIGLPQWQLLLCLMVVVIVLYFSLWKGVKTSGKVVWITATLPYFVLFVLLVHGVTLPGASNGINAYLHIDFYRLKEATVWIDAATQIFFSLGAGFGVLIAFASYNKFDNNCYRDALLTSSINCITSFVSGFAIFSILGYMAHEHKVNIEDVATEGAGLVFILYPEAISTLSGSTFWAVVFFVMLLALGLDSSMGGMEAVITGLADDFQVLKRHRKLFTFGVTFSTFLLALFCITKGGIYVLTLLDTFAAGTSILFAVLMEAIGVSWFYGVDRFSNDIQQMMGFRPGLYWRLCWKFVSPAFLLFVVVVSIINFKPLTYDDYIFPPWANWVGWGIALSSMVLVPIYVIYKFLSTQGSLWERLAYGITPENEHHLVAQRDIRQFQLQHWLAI
Put plainly: Inhibitory action on human norepinephrine transporter ([3H]-norepinephrine uptake in CHO cells). The conditions noted are these: compound 1 μM, relative to inhibitory activity of 10 μM DMI as 100%; for inhibition at 1 µM: CHO, read-out: inhibitory rate (%). The essentials:
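Stably transfected CHO-K1 cells plated overnight, then given test compound and [3H]-norepinephrine (20 nM final, from 200 nM) in HEPES-buffered saline with 0.5% BSA for 45 min. After PBS washes, retained radioactivity counted by scintillation. Inhibition at 10 μM or 1 μM compound expressed relative to 10 μM DMI as 100%.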

Assay [3] deals with T3, human dopamine transporter (Homo sapiens, UniProt Q01959).
T3 construct: expressed in transfected cells
T3 sequence (Q01959 whole entry): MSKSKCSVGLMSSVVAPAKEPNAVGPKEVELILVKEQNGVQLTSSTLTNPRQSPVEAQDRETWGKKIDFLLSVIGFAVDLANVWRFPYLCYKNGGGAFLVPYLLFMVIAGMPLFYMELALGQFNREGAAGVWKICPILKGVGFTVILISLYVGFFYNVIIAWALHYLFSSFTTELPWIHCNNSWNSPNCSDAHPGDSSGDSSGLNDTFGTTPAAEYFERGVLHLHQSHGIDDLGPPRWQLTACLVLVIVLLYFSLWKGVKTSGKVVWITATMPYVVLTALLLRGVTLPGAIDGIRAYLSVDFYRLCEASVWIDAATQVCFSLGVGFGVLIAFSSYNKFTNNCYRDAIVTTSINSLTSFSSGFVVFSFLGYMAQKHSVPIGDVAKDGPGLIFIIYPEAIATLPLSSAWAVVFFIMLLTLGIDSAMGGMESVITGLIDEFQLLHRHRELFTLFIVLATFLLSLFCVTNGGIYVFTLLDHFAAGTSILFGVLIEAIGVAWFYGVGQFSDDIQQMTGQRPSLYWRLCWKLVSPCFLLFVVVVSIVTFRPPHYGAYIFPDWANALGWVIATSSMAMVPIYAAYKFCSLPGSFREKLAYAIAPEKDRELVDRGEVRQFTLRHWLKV
Nature of the assay: Inhibitory action on human dopamine transporter ([3H]-dopamine uptake in CHO cells). The following applies: compound 1 μM, relative to inhibitory activity of 100 μM Nomifensine as 100%; for inhibition at 1 µM: CHO, read-out: inhibitory rate (%). An outline of the steps:
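CHO-K1 cells stably expressing human dopamine transporter, exposed to compound at 10 μM or 1 μM in HEPES-buffered saline with 0.5% BSA. [3H]-dopamine uptake measured over 60 min by scintillation counting. Activity expressed relative to 100 μM nomifensine as 100%.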

T1 sequence (P31645 whole entry): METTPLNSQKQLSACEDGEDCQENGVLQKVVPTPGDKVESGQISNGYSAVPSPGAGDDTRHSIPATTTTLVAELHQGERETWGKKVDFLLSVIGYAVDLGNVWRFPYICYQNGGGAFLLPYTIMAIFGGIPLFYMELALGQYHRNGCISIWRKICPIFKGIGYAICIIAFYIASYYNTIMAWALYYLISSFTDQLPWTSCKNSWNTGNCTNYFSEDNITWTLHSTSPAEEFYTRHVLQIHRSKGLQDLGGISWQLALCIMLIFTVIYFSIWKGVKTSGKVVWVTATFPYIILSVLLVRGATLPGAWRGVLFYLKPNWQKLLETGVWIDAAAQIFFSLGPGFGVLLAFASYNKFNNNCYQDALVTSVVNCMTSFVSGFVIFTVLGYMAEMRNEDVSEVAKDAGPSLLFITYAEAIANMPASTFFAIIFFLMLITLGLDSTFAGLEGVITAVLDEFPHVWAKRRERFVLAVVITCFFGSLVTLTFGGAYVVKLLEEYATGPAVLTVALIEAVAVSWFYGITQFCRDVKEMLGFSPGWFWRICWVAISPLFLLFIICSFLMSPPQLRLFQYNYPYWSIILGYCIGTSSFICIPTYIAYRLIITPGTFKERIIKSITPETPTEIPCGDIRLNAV

For `O=c1[nH]nc(-c2cccn(C[C@@H]3CNCCO[C@H]3c3ccc(Cl)c(F)c3)c2=O)[nH]1` [Example 379, 1-{[(6S,7R)-7-(4-chloro-3-fluorophenyl)-1,4-oxazepan-6-yl]methyl}-3-(5-oxo-4,5-dihydro-1H-1,2,4-triazol-3-yl)pyridin-2(1H)-one monohydrochloride], the inhibition at 1 µM in assay [1] was found to be 95%; in assay [2], 102%; in assay [3], 64%.

`Cc1cc(C2OCCNCC2CO)ccc1Cl` (stereo not drawn) [Example 401, [(6R*,7S*)-7-(4-chloro-3-methylphenyl)-1,4-oxazepan-6-yl]methanol monohydrochloride (retention time short)]: the inhibition at 1 µM was determined as 75% in assay [1], 100% in assay [2] and 17% in assay [3].

For the molecule `Cc1cc(C2OCCNCC2CO)ccc1Cl` (stereo not drawn) [Example 402, [(6R*,7S*)-7-(4-chloro-3-methylphenyl)-1,4-oxazepan-6-yl]methanol monohydrochloride (retention time long)], the “inhibitory rate (%)” value in assay [1] is recorded as 91%; in assay [2], 98%; in assay [3] it was 19%.

Regarding `Cc1ccc(C2OCCNCC2CO)cc1Cl` (stereo not drawn) [Example 405, [(6R*,7S*)-7-(3-chloro-4-methylphenyl)-1,4-oxazepan-6-yl]methanol monohydrochloride (retention time short)], the inhibition at 1 µM in assay [1] was 71%; in assay [2], 100%; in assay [3] it was 12%.

On to `Cc1ccc(C2OCCNCC2CO)cc1Cl` (stereo not drawn) [Example 406, [(6R*,7S*)-7-(3-chloro-4-methylphenyl)-1,4-oxazepan-6-yl]methanol monohydrochloride (retention time long)], for which the “inhibitory rate (%)” value in assay [1] stood at 82%; in assay [2], 98%; in assay [3], 22%.

For `OCCOC[C@@]1(c2ccc(Cl)c(Cl)c2)CCNCCO1` [Example 416, 2-{[(7S)-7-(3,4-dichlorophenyl)-1,4-oxazepan-7-yl]methoxy}ethanol monohydrochloride], the inhibition at 1 µM in assay [1] was determined as 85%; in assay [2], 100%; in assay [3] it was 18%.

In the case of `OCC(O)COC[C@@]1(c2ccc(Cl)c(Cl)c2)CCNCCO1` (stereo partly drawn) [Example 417, 3-{[(7S)-7-(3,4-dichlorophenyl)-1,4-oxazepan-7-yl]methoxy}propane-1,2-diol monohydrochloride], the inhibition at 1 µM turned out to be 92% in assay [1], 102% in assay [2] and 17% in assay [3].

As to `CS(=O)(=O)NC[C@@]1(c2ccc(Cl)c(Cl)c2)CCNCCO1` [Example 432, N-{[(7S)-7-(3,4-dichlorophenyl)-1,4-oxazepan-7-yl]methyl}methanesulfonamide monohydrochloride], the inhibition at 1 µM in assay [1] is 84%; in assay [2], 97%; in assay [3], 10%.

`O=C1CNC(=O)N1C[C@]1(c2ccc(Cl)c(Cl)c2)CCNCCO1` [Example 438, 3-{[(7R)-7-(3,4-dichlorophenyl)-1,4-oxazepan-7-yl]methyl}imidazolidine-2,4-dione monohydrochloride]: the results for the inhibition at 1 µM in assay [1], in assay [2] and in assay [3] were 81%, 97% and 6%, respectively.

Consider `O=C1CNC(=O)N1C[C@@]1(c2ccc(Cl)c(Cl)c2)CCNCCO1` [Example 439, 3-{[(7S)-7-(3,4-dichlorophenyl)-1,4-oxazepan-7-yl]methyl}imidazolidine-2,4-dione monohydrochloride], for which the results for the inhibition at 1 µM in assay [1], in assay [2] and in assay [3] were 74%, 98% and 7%, respectively.

For the molecule `OCC1CNCCOC1c1ccc(Cl)c(F)c1` (stereo not drawn) [Example 440, [(6R*,7R*)-7-(4-chloro-3-fluorophenyl)-1,4-oxazepan-6-yl]methanol monohydrochloride (retention time short)], the “inhibitory rate (%)” value in assay [1] is listed as 93%. For the same molecule, the inhibition at 1 µM in assay [2] amounted to 105%; in assay [3] it was 10%.

With `OCC1CNCCOC1c1ccc(Cl)c(F)c1` (stereo not drawn) [Example 441, [(6R*,7R*)-7-(4-chloro-3-fluorophenyl)-1,4-oxazepan-6-yl]methanol monohydrochloride (retention time long)], the figures for the “inhibitory rate (%)” value in assay [1], in assay [2] and in assay [3] were 51%, 103% and 6%, respectively.

`OC[C@H]1OCCNC[C@H]1c1ccc(Cl)c(Cl)c1` [Example 447, [(6R,7S)-6-(3,4-dichlorophenyl)-1,4-oxazepan-7-yl]methanol monohydrochloride]: the inhibition at 1 µM in assay [1] stood at 42%; in assay [2], 99%; in assay [3], 51%.

On to `OC[C@@H]1OCCNC[C@@H]1c1ccc(Cl)c(Cl)c1` [Example 448, [(6S,7R)-6-(3,4-dichlorophenyl)-1,4-oxazepan-7-yl]methanol monohydrochloride], for which the inhibition at 1 µM was 28% in assay [1], 88% in assay [2] and 7% in assay [3].

Consider `CC(=O)NC[C@H]1OCCNC[C@H]1c1ccc(Cl)c(Cl)c1` [Example 453, N-{[(6R,7S)-6-(3,4-dichlorophenyl)-1,4-oxazepan-7-yl]methyl}acetamide monohydrochloride], for which the inhibition at 1 µM in assay [1] came to 41%; in assay [2] it was 104%; in assay [3], 99%.

In the case of `CS(=O)(=O)NC[C@H]1OCCNC[C@H]1c1ccc(Cl)c(Cl)c1` [Example 467, N-{[(6R,7S)-6-(3,4-dichlorophenyl)-1,4-oxazepan-7-yl]methyl}methanesulfonamide monohydrochloride], the inhibition at 1 µM in assay [1] was determined as 38%; in assay [2] it was 102%; in assay [3] it was 60%.

As for `O=S(=O)(NC[C@H]1OCCNC[C@H]1c1ccc(Cl)c(Cl)c1)C(F)F` [Example 470, N-{[(6R,7S)-6-(3,4-dichloropheny))-1,4-oxazepan-7-yl]methyl}-1,1-difluoromethanesulfonamide monohydrochloride], the inhibition at 1 µM in assay [1] was 66%; in assay [2] it was 103%; in assay [3], 91%.

On to `O=c1cccnn1C[C@H]1OCCNC[C@H]1c1ccc(Cl)c(Cl)c1` [Example 481, 2-{[(6R,7S)-6-(3,4-dichlorophenyl)-1,4-oxazepan-7-yl]methyl}pyridazin-3(2H)-one monohydrochloride], for which the inhibition at 1 µM worked out at 76% in assay [1], 100% in assay [2] and 61% in assay [3].

With `OC[C@H]1OCCNC[C@@H]1c1ccc(Cl)c(Cl)c1` [Example 487, [(6S,7S)-6-(3,4-dichlorophenyl)-1,4-oxazepan-7-yl]methanol monohydrochloride], the figures for the inhibition at 1 µM in assay [1], in assay [2] and in assay [3] were 15%, 70% and 14%, respectively.

Take `OC[C@@H]1OCCNC[C@H]1c1ccc(Cl)c(Cl)c1` [Example 488, [(6R,7R)-6-(3,4-dichlorophenyl)-1,4-oxazepan-7-yl]methanol monohydrochloride]: the inhibition at 1 µM in assay [1] worked out at 61%; in assay [2] it was 102%; in assay [3], 37%.

`OCC(O)(CO)[C@@H]1OCCNC[C@H]1c1ccc(Cl)c(Cl)c1` [Example 491, 2-[(6R,7R)-6-(3,4-dichlorophenyl)-1,4-oxazepan-7-yl]propane-1,2,3-triol monohydrochloride]: the inhibition at 1 µM worked out at 77% in assay [1], 100% in assay [2] and 77% in assay [3].

On to `OCCOC[C@@H]1OCCNC[C@H]1c1ccc(Cl)c(Cl)c1` [Example 496, 2-{[(6R,7R)-6-(3,4-dichlorophenyl)-1,4-oxazepan-7-yl]methoxy}ethanol monohydrochloride], for which the inhibition at 1 µM turned out to be 62% in assay [1], 105% in assay [2] and 57% in assay [3].

On to `O=C(CO)NC[C@@H]1OCCNC[C@H]1c1ccc(Cl)c(Cl)c1` [Example 507, N-{[(6R,7R)-6-(3,4-dichlorophenyl)-1,4-oxazepan-7-yl]methyl}-2-hydroxyacetamide monohydrochloride], for which the inhibition at 1 µM in assay [1] was 46%; in assay [2] it was 104%; in assay [3], 25%.

With `O=c1cccnn1C[C@@H]1OCCNC[C@H]1c1ccc(Cl)c(Cl)c1` [Example 515, 2-{[(6R,7R)-6-(3,4-dichlorophenyl)-1,4-oxazepan-7-yl]methyl}pyridazin-3(2H)-one monohydrochloride], the figures for the inhibition at 1 µM in assay [1], in assay [2] and in assay [3] were 82%, 104% and 53%, respectively.
